Drawing on patent publication US10010624B2, “Pyrrolobenzodiazepine-antibody conjugates” (MEDIMMUNE LIMITED, priority 2013, dated 2018), this text covers IC50 for 1 compound.

SMILES strings stand for the structures.

This assay has as its system K562 human chronic myeloid leukaemia cells. As to the kind of experiment: K562 assay (MTT cytotoxicity of released compounds). The note with it: drug incubation 1 hour or 96 hours (not specified which), MTT readout, dose reducing optical density to 50% of control. It is filed as cell-based. On the procedure:
K562 human chronic myeloid leukaemia cells were maintained in RPM1 1640 medium supplemented with 10% fetal calf serum and 2 mM glutamine at 37° C. in a humidified atmosphere containing 5% CO2 and were incubated with a specified dose of drug for 1 hour or 96 hours at 37° C. in the dark. The incubation was terminated by centrifugation (5 min, 300 g) and the cells were washed once with drug-free medium. Following the appropriate drug treatment, the cells were transferred to 96-well microtiter plates (10^4 cells per well, 8 wells per sample). Plates were then kept in the dark at 37° C. in a humidified atmosphere containing 5% CO2. The assay is based on the ability of viable cells to reduce a yellow soluble tetrazolium salt, 3-(4,5-dimethylthiazol-2-yl)-2,5-diphenyl-2H-tetrazolium bromide (MTT, Aldrich-Sigma), to an insoluble purple formazan precipitate. Following incubation of the plates for 4 days (to allow control cells to increase in number by approximately 10 fold), 20 μL of MTT solution (5 mg/mL in phosphate-buffered saline) was added to each well and the plates further incubated for 5 h. The plates were then centrifuged for 5 min at 300 g and the bulk of the medium pipetted from the cell pellet leaving 10-20 μL per well. […] The optical density was then read at a wavelength of 550 nm on a Titertek Multiscan ELISA plate reader, and a dose-response curve was constructed. […]

What is called IC50 is the concentration needed to halve the response being measured. For `COc1cc2c(cc1OCCCCCOc1cc3c(cc1OC)C(=O)N1C=C(C)C[C@H]1C=N3)N=C[C@@H]1CC(C)=CN1C2=O` [Compound RelC], the IC50 is 0.425 nM.
